The source of these data is ChEMBL document CHEMBL1201862, “PubChem BioAssay data set” (2004).

Test systems include MOLT-4; SNB-19; UACC-257; COLO 205; OVCAR-5; CAKI-1; HCT-15; SK-MEL-5; HOP-92; SN12C; HL-60; SNB-75; OVCAR-8; EKVX; NCI-H460; NCI-H226; HCT-116; RXF 393.
Holding throughout (assay): growth of human tumour cells (NCI), 48 h

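Dose response: 5 concentrations. Exposure: 48 h. Format: 96-well plates. Endpoint: linear interpolation; highest concentration if not reached. At the GI50, growth is halved.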 Activity calls are given as the source filed them. Cut-off read from the data, not from the text of the source: active = GI50 up to about 1.1 µM and inactive = higher.

Take `COc1ccc2c(c1)[n+]([O-])c(-c1c(Cl)cccc1Cl)c(N)[n+]2[O-]`: the GI50 is 75.3 µM (inactive) with MOLT-4; 50 µM (inactive) in the test on SNB-19; 23.4 µM (inactive) in the test on UACC-257; 30.2 µM (inactive) in the test on COLO 205; > 100 µM (inactive) in the test on OVCAR-5; 50.5 µM (inactive) in the test on CAKI-1. Besides, the GI50 was 31.8 µM in the test on HCT-15; 22.9 µM (inactive) with SK-MEL-5; 45.6 µM (inactive) with HOP-92; 46.1 µM (inactive) with SN12C; 36.8 µM (inactive) in the test with HL-60; > 100 µM (inactive) with SNB-75. Further, the GI50 in the test with OVCAR-8 was 61.7 µM (inactive); in the test on EKVX, 61.5 µM (inactive); with NCI-H460, 44.4 µM (inactive); in the test on NCI-H226 it was 79.6 µM (inactive).
Consider `C=C1C(=O)C23C(O)CC4C5(C)CCCC4(C(O)OC5)C2C(OC(C)=O)CC1C3O` (stereo unspecified), for which the GI50 in the test with MOLT-4 is 3.66 µM (inactive); in the test on SNB-19, 14.7 µM (inactive); with COLO 205, 5.16 µM (inactive); with OVCAR-5, 18 µM (inactive); in the test on CAKI-1 it was 4.95 µM (inactive); with HCT-116, 5.11 µM (inactive). Also, the GI50 with HCT-15 was 11.7 µM; with SK-MEL-5, 14.8 µM (inactive); in the test with HOP-92, 3.52 µM (inactive); with SN12C it was 10.6 µM (inactive); in the test with SNB-75 it was 4.28 µM (inactive); in the test on OVCAR-8, 2.75 µM (inactive). For the same compound, the GI50 with EKVX was 14.6 µM (inactive); with NCI-H460, 4.97 µM (inactive); in the test on NCI-H226, 19.5 µM (inactive).
Turning to `CN(Cc1ccccc1)C(=NC#N)N(C)Cc1ccccc1`, the GI50 in the test with SNB-19 was > 100 µM (inactive); with UACC-257, > 100 µM (inactive); in the test with COLO 205, > 100 µM (inactive); in the test on CAKI-1, > 100 µM (inactive); in the test on HCT-116, > 100 µM (inactive); with HCT-15, above 100 µM. Moreover, the GI50 in the test on SK-MEL-5, in the test with HOP-92, with SN12C, in the test with OVCAR-8, in the test with EKVX and in the test on NCI-H460 was > 100 µM (inactive) each time.
Regarding `COc1ccc(N2C(=O)[C@@H]3[C@@H]4CC(C)CC[C@@H]4c4c([nH]c5ccccc45)[C@@H]3C2=O)cc1` (stereo partly specified), the GI50 with MOLT-4 is 19.8 µM (inactive); in the test with SNB-19 it was 8.24 µM (inactive); in the test with UACC-257, 53.8 µM (inactive); in the test with COLO 205 it was 33 µM (inactive); with OVCAR-5 it was > 77.6 µM (inactive); in the test on CAKI-1, 29 µM (inactive). The GI50 is 6.44 µM (inactive) with HCT-116; 15.3 µM in the test with HCT-15; 34 µM (inactive) in the test with SK-MEL-5; 5.92 µM (inactive) in the test with HOP-92; 11.2 µM (inactive) with SN12C; 29.1 µM (inactive) in the test on HL-60. Further, the GI50 in the test with SNB-75 was 2.82 µM (inactive); in the test on OVCAR-8, 12.8 µM (inactive); in the test on EKVX, 28.9 µM (inactive); with NCI-H460, 13.5 µM (inactive); in the test with NCI-H226 it was 7.38 µM (inactive).
As to `O=C(CCN(C(=O)O)S(=O)(=O)c1ccc(NC(=O)c2ccccc2)cc1)NC1CCCCC1`, the GI50 in the test on MOLT-4 was 21.4 µM (inactive); with SNB-19 it was > 100 µM (inactive); in the test on UACC-257 it was > 100 µM (inactive); with COLO 205 it was 47.4 µM (inactive); in the test with OVCAR-5, > 100 µM (inactive); in the test on CAKI-1, > 100 µM (inactive). For the same compound, the GI50 in the test on HCT-116 was > 100 µM (inactive); in the test on HCT-15, 47.6 µM; in the test with SK-MEL-5, > 100 µM (inactive); in the test on HOP-92 it was > 100 µM (inactive); with SN12C it was > 100 µM (inactive); in the test on HL-60 it was 30.3 µM (inactive). Besides, the GI50 in the test with SNB-75 is > 100 µM (inactive); in the test on OVCAR-8, > 100 µM (inactive); with EKVX it was > 100 µM (inactive); with NCI-H460, 42.4 µM (inactive); in the test with NCI-H226, > 100 µM (inactive).
Take `CCC1C(=O)OCc2c1cc1n(c2=O)C(CC)c2c-1nc1ccccc1c2Cl` (stereo unspecified): the GI50 is 10.4 µM (inactive) with MOLT-4; 29.6 µM (inactive) in the test with SNB-19; 29.6 µM (inactive) with UACC-257; 16.2 µM (inactive) with COLO 205; 23.1 µM (inactive) in the test with OVCAR-5; 23 µM (inactive) in the test on CAKI-1. Moreover, the GI50 is 36.6 µM in the test with HCT-15; 16.7 µM (inactive) with SK-MEL-5; 26.9 µM (inactive) in the test on HOP-92; 22.2 µM (inactive) in the test on HL-60; 25.2 µM (inactive) in the test on EKVX; 15.1 µM (inactive) in the test with NCI-H460. Moreover, the GI50 with NCI-H226 was 29.1 µM (inactive).
For the compound `COc1ccc(OC(C(=O)O)C(C)C)c2c1CCCC2=O` (stereo unspecified), the GI50 in the test with MOLT-4, with SNB-19, with UACC-257, with COLO 205, in the test with OVCAR-5 and in the test with CAKI-1 was > 100 µM (inactive) throughout. Moreover, the GI50 with HCT-116 is > 100 µM (inactive); in the test with HCT-15 it was above 100 µM; with SK-MEL-5, > 100 µM (inactive); in the test with SN12C, > 100 µM (inactive); in the test with HL-60, > 100 µM (inactive); with OVCAR-8, > 100 µM (inactive). Also, the GI50 in the test on EKVX and with NCI-H460 was > 100 µM (inactive) in each case.
`CN1Cc2c(nc(-c3ccccc3)c[n+]2[O-])N(C)C1`: the GI50 in the test with MOLT-4, in the test on SNB-19, with UACC-257, in the test on COLO 205, with OVCAR-5 and with CAKI-1 was > 100 µM (inactive) each time. Besides, the GI50 in the test with HCT-15 is above 100 µM; with SK-MEL-5 it was > 100 µM (inactive); in the test with HOP-92 it was > 100 µM (inactive); with SN12C it was > 100 µM (inactive); with HL-60, > 100 µM (inactive); with SNB-75 it was > 100 µM (inactive). Moreover, the GI50 in the test with OVCAR-8, with EKVX, in the test on NCI-H460 and in the test on NCI-H226 was > 100 µM (inactive) in each case.
For the compound `C[N+](C)(C)C.FC(F)(F)C1(C(F)(F)F)O[SiH-]2(OC(C(F)(F)F)(C(F)(F)F)c3ccccc32)c2ccccc21`, the GI50 with MOLT-4 is 11.7 µM (inactive); in the test on SNB-19 it was 7.18 µM (inactive); in the test with UACC-257, 24.4 µM (inactive); in the test with COLO 205 it was 20 µM (inactive); in the test with RXF 393 it was 13 µM (inactive); in the test with OVCAR-5 it was 13.2 µM (inactive). Further, the GI50 in the test with CAKI-1 was 26.4 µM (inactive); in the test on HCT-15 it was 10.4 µM; in the test on SN12C it was 18.1 µM (inactive); with OVCAR-8, 15.3 µM (inactive); in the test on EKVX, 14.2 µM (inactive); in the test with NCI-H460, 8.97 µM (inactive). Also, the GI50 in the test with NCI-H226 was 4.86 µM (inactive).
Regarding `CN(C)c1nc(N(C)C)nc(N(C)CN(C)c2ccc(Cl)cc2)n1`, the GI50 in the test on MOLT-4 was > 100 µM (inactive); in the test on SNB-19, > 100 µM (inactive); with UACC-257, > 100 µM (inactive); with RXF 393, > 100 µM (inactive); with HCT-116 it was > 100 µM (inactive); in the test on HCT-15, above 100 µM. The GI50 was > 100 µM (inactive) in the test on SK-MEL-5; > 100 µM (inactive) in the test with SN12C; 1.72 µM (inactive) in the test on HL-60; > 100 µM (inactive) in the test on SNB-75; > 100 µM (inactive) in the test on OVCAR-8; > 100 µM (inactive) in the test with NCI-H460. Moreover, in the test on NCI-H226, the GI50 is > 100 µM (inactive).
